Data: ChEMBL document CHEMBL3734727, “Metabolomics-Driven Discovery of a Prenylated Isatin Antibiotic Produced by Streptomyces Species MBT28” (2015)
Calls of active or inactive are those of the source. The calls are words filed in the database; no cut-off is given here.

Tests used:
Bacillus subtilis = assay: Antibacterial activity against Bacillus subtilis assessed as growth inhibition by microtiter plate-based MIC test
Staphylococcus aureus = assay: Antibacterial activity against Staphylococcus aureus; type: functional, organism-based
Escherichia coli = assay: Antibacterial activity against Escherichia coli K-12; type: functional, organism-based

MIC (Bacillus subtilis): 25 µg/mL
SMILES: CC(C)=CCc1cccc2c1NC(=O)C2=O
Activity (Staphylococcus aureus): inactive
Activity (Escherichia coli): inactive
